According to patent publication EP0096293A1, “N-acetylglucosamine derivatives, process for their preparation and their use to combat malaria” (BEHRINGWERKE Aktiengesellschaft, priority 1982, dated 1983):
Where a name gives a salt, the structure may show the parent alone.

How the values were obtained:
P. falciparum-Merozoiten [1] = conditions: synchronous in vitro culture, addition of the sugar; findings of Vanderberg et al. (Exp. Parasitol. 1981); cited from earlier work
P. falciparum [2] = test: Intraerythrocytic growth of malaria parasites (toxicity to the parasite); type: cell-based; conditions: applicant's own finding, contrary to Vanderberg et al.
P. falciparum [3] = conditions: findings of Vanderberg et al. (Exp. Parasitol. 1981); cited from earlier work
P. falciparum-Merozoiten [4] = test: Invasion of human erythrocytes by P. falciparum merozoites in synchronous in vitro culture; type: cell-based; conditions: compared with other methyl glycosides (methyl gluco-, galacto-, fuco-, mannopyranosides)

| Compound | Befall von Humanerythrozyten durch P. falciparum-Merozoiten (P. falciparum-Merozoiten [1]) | intraerythrozytäre Parasiten-Wachstum (toxisch) (P. falciparum [2]) | intraerythrozytäre Wachstum der Malaria-Parasiten (P. falciparum [3]) | invasionsinhibierende Wirkung (P. falciparum-Merozoiten [4]) |
| --- | --- | --- | --- | --- |
| C[C@@H]1OC(O)[C@@H](O)[C@H](O)[C@@H]1O (stereo partly drawn) [L-Fucose] | gehemmt | nicht toxisch | gehemmt | – |
| N[C@H]1C(O)O[C@H](CO)[C@@H](O)[C@@H]1O (stereo partly drawn) [DGlcNH3Cl, D-Glucosaminhydrochlorid] | gehemmt | – | gehemmt | – |
| CO[C@H]1O[C@H](CO)[C@@H](O)[C@H](O)[C@H]1NC(C)=O [α-DGlcNAcOMe, Methyl-2 -acetamido- 2 -desoxy-alpha oder beta-D-glucopyranosid] | – | nicht toxisch | – | stark erhöhte invasionsinhibierende Wirkung |
| CC(=O)N[C@H]1C(O)O[C@H](CO)[C@@H](O)[C@@H]1O (stereo partly drawn) [DGlcNAc, N-Acetyl-D-glucosamin] | gehemmt | toxisch | nicht aber durch N-Acetyl-D-Glucosamin gehemmt | – |
| CO[C@@H]1O[C@H](CO)[C@@H](O)[C@H](O)[C@H]1NC(C)=O [β-DGlcNAcOMe, Methyl-2 -acetamido- 2 -desoxy-alpha oder beta-D-glucopyranosid] | – | nicht toxisch | – | stark erhöhte invasionsinhibierende Wirkung |
